This passage reports EC50 results from patent US20230340011A1 (Asteroid Therapeutics, priority 2022, published 2023).

For this experiment, the target named is LXRβ (Homo sapiens (Human), UniProt P55055). The experiment is described as follows: In vitro assay LXRβ: PathHunter NHR CHO cells, LXRβ / Steroid Receptor Co-activator Peptide enzyme fragment complementation. The class given is cell-based. The following applies: PathHunter NHR CHO cells, full-length human LXRβ and SRCP, chemiluminescent signal; read-out: LXRβ PPI. The gist of the method: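 Co-activator recruitment measured by chemiluminescence after signal generation. The CHO line carries full-length human LXRβ tagged with ProLink and an SRCP–enzyme acceptor fusion in the nucleus; cells sat overnight at 37° C before testing, in charcoal-dextran filtered serum medium with 1% final vehicle.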
LXRβ, sequence (P55055 whole entry, the tested form may be a part): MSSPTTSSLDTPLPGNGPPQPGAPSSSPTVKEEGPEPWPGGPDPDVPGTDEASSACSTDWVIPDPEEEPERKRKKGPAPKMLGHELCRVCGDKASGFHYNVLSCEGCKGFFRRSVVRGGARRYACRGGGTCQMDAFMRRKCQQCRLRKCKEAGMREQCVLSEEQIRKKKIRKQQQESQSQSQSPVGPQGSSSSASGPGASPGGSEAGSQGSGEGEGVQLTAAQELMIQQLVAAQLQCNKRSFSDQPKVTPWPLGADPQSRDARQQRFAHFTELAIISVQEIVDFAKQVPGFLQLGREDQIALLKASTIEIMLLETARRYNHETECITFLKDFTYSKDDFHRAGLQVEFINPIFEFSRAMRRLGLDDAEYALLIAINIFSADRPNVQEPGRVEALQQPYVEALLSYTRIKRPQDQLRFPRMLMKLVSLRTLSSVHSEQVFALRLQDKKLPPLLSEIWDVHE

`CC(=O)N1CCN(C(=O)CC[C@@H](C)[C@H]2CC[C@H]3[C@@H]4CC=C5C[C@@H](O)CC[C@]5(C)[C@H]4CC[C@]23C)[C@H](C)C1` [Example 275, (4R)-4-[(1R,3aS,3bS,7S,9aR,9bS,11aR)-7-hydroxy-9a,11a-dimethyl-1H,2H,3H,3aH,3bH,4H,6H,7H,8H,9H,9aH,9bH,10H,11H,11aH-cyclopenta[a]phenanthren-1-yl]-1-[(2R)-4-acetyl-2-methylpiperazin-1-yl]pentan-1-one]: the EC50 is more than 10 µM.
`CC(=O)N1CCN(C(=O)CC[C@@H](C)[C@H]2CC[C@H]3[C@@H]4CC=C5C[C@@H](O)CC[C@]5(C)[C@H]4CC[C@]23C)[C@@H](C)C1` [Example 276, (4R)-4-[(1R,3aS,3bS,7S,9aR,9bS,11aR)-7-hydroxy-9a,11a-dimethyl-1H,2H,3H,3aH,3bH,4H,6H,7H,8H,9H,9aH,9bH,10H,11H,11aH-cyclopenta[a]phenanthren-1-yl]-1-[(2S)-4-acetyl-2-methylpiperazin-1-yl]pentan-1-one]: the EC50 was more than 10 µM.
Turning to `CC(=O)N1CCN(C(=O)CC[C@@H](C)[C@H]2CC[C@H]3[C@@H]4CC=C5C[C@@H](O)CC[C@]5(C)[C@H]4CC[C@]23C)C[C@@H]1C` [Example 277, (R)-1-((S)-4-acetyl-3-methylpiperazin-1-yl)-4-((3S,8S,9S,10R,13R,14S,17R)-3-hydroxy-10,13-dimethyl-2,3,4,7,8,9,10,11,12,13,14,15,16,17-tetradecahydro-1H-cyclopenta[a]phenanthren-17-yl)pentan-1-one], the EC50 is more than 10 µM.
For `CC(=O)N1CCN(C(=O)CC[C@@H](C)[C@H]2CC[C@H]3[C@@H]4CC=C5C[C@@H](O)CC[C@]5(C)[C@H]4CC[C@]23C)C[C@H]1C` [Example 278, (R)-1-((R)-4-acetyl-3-methylpiperazin-1-yl)-4-((3S,8S,9S,10R,13R,14S,17R)-3-hydroxy-10,13-dimethyl-2,3,4,7,8,9,10,11,12,13,14,15,16,17-tetradecahydro-1H-cyclopenta[a]phenanthren-17-yl)pentan-1-one], the EC50 was more than 10 µM.
Take `C[C@H](CCC(=O)N1CCN(C(=O)OCCO)CC1)[C@H]1CC[C@H]2[C@@H]3CC=C4C[C@@H](O)CC[C@]4(C)[C@H]3CC[C@]12C` [Example 281, 2-hydroxyethyl 4-[(4R)-4-[(1R,3aS,3bS,7S,9aR,9bS,11aR)-7-hydroxy-9a,11a-dimethyl-1H,2H,3H,3aH,3bH,4H,6H,7H,8H,9H,9aH,9bH,10H,11H,11aH-cyclopenta[a]phenanthren-1-yl]pentanoyl]piperazine-1-carboxyla]: the EC50 was more than 10 µM.
`COC(=O)N1CCN(C(=O)CCC[C@H]2CC[C@H]3[C@@H]4CC=C5C[C@@H](O)CC[C@]5(C)[C@H]4CC[C@]23C)CC1` [Example 283]: the EC50 is more than 10 µM.
With `CNS(=O)(=O)C1CCN(C(=O)CC[C@@H](C)[C@H]2CC[C@H]3[C@@H]4CC=C5C[C@@H](O)CC[C@]5(C)[C@H]4CC[C@]23C)CC1` [Example 291, 1-[(4R)-4-[(1R,3aS,3bS,7S,9aR,9bS,11aR)-7-hydroxy-9a,11a-dimethyl-1H,2H,3H,3aH,3bH,4H,6H,7H,8H,9H,9aH,9bH,10H,11H,11aH-cyclopenta[a]phenanthren-1-yl]pentanoyl]-N-methylpiperidine-4-sulfonamide], the EC50 is more than 10 µM.
Take `C[C@H](CCC(=O)N(C)CCc1ccccn1)[C@H]1CC[C@H]2[C@@H]3CC=C4C[C@@H](O)CC[C@]4(C)[C@H]3CC[C@]12C` [Example 293, (4R)-4-[(1R,3aS,3bS,7S,9aR,9bS,11aR)-7-hydroxy-9a,11a-dimethyl-1H,2H,3H,3aH,3bH,4H,6H,7H,8H,9H,9aH,9bH,10H,11H,11aH-cyclopenta[a]phenanthren-1-yl]-N-methyl-N-[2-(pyridin-2-yl)ethyl]pentanamide]: the EC50 lay within 0.25 to 1 µM.
